Experimental data reported in patent publication US10807992B2, “Single enantiomer antiparasitic compounds” (priority 2017, dated 2020).

System: Ixodes scapularis
Test: In vitro contact activity against adult ticks (coated vial), I. scapularis
Conditions: for mortality at 0.006 µM: Trial 1, dose 0.006 μM; for mortality at 0.024 µM: Trial 1, dose 0.024 μM; for mortality at 0.098 µM: Trial 1, dose 0.098 μM; for mortality at 0.39 µM: Trial 1, dose 0.39 μM; for mortality at 1.56 µM: Trial 1, dose 1.56 μM; for mortality at 6.25 µM: Trial 1, dose 6.25 μM; for mortality at 25 µM: Trial 1, dose 25 μM; for mortality at 100 µM: Trial 1, dose 100 μM
Protocol: Rhipicephalus sanguineus, Dermacentor variabilis, Amblyomma americanum, (Ecto Services, Inc., Henderson, N.C.) and Ixodes scapularis (Oklahoma State University, Stillwater, Okla.) aged between 2-4 weeks post molt were held in an environmental chamber at 24° C., 80% humidity with 12-hour light/dark cycles.
For tick assays, vial caps were pre-drilled with a single hole in the center of each cap to allow air exchange. A filter paper (Whatman Grade 540 2.1 cm) was placed in the lid of each vial. An aliquot from each compound stock was added to an acetone/triton solution to achieve the desired top doses for the study. Serial dilutions were conducted from the top dose (i.e. 100 ppm) to achieve the desired titration range for EC50 and EC90 determination. For R. sanguineus, D. variabilis, and A. americanum, the final DMSO concentration in each test vial was 0.5%. For I. scapularis, compounds were solubilized directly in an acetone/triton solution due to I. scapularis' sensitivity to DMSO. A 459 μL aliquot of each compound formulation was transferred to a vial containing a Whatman Grade 540 2.1 cm filter paper. Vials were immediately placed on an unheated roller unit to allow for an even coating of the vial walls. After vials were coated, 41 μL of each compound formulation was added to the filter paper embedded in each vial cap. Each cap was allowed to dry. The vials were loosely capped and allowed to dry for a minimum of four hours in a chemical fume hood.
Compounds tested were: the C1 racemate, C1 (R) enantiomer, and the C1 (S) enantiomer. For Trial 3, the C1 (R) enantiomer and the C1 (S) enantiomer were further chiral purified to achieve >99% purity.
Ten adult ticks were added to each vial and held at 24° C., 80% humidity with 12-hour light/dark cycles. Adult ticks were assessed for percent mortality at various time points between 2 hours and 48 hours post infestation. Ticks were stimulated on a heated roller unit and evaluated. Ticks showing no movement, or very slow and uncoordinated movement were noted as dead.

SMILES: O=C(CC(F)(F)F)N1CC2(C1)OCc1cc(C3=NS[C@@](c4cc(Cl)c(F)c(Cl)c4)(C(F)(F)F)C3)ccc12 [C1 (S) enantiomer, (S)-1-[6-[5-(3,5-dichloro-4-fluoro-phenyl)-5-(trifluoromethyl)-4H-isothiazol-3-yl]spiro[1H-isobenzofuran-3,3′-azetidine]-1′-yl]-3,3,3-trifluoro-propan-1-one]
- mortality at 0.006 µM (2 h, Rep1): 0%
- mortality at 0.006 µM (2 h, Rep2): 0%
- mortality at 0.024 µM (2 h, Rep1): 0%
- mortality at 0.024 µM (2 h, Rep2): 0%
- mortality at 0.098 µM (2 h, Rep1): 0%
- mortality at 0.098 µM (2 h, Rep2): 0%
- mortality at 0.39 µM (2 h, Rep1): 0%
- mortality at 0.39 µM (2 h, Rep2): 0%
- mortality at 1.56 µM (2 h, Rep1): 0%
- mortality at 1.56 µM (2 h, Rep2): 0%
- mortality at 6.25 µM (2 h, Rep1): 0%
- mortality at 6.25 µM (2 h, Rep2): 0%
- mortality at 25 µM (2 h, Rep1): 0%
- mortality at 25 µM (2 h, Rep2): 0%
- mortality at 100 µM (2 h, Rep1): 0%
- mortality at 100 µM (2 h, Rep2): 0%
- mortality at 0.006 µM (6 h, Rep1): 0%
- mortality at 0.006 µM (6 h, Rep2): 0%
- mortality at 0.024 µM (6 h, Rep1): 0%
- mortality at 0.024 µM (6 h, Rep2): 0%
- mortality at 0.098 µM (6 h, Rep1): 0%
- mortality at 0.098 µM (6 h, Rep2): 0%
- mortality at 0.39 µM (6 h, Rep1): 0%
- mortality at 0.39 µM (6 h, Rep2): 0%
- mortality at 1.56 µM (6 h, Rep1): 0%
- mortality at 1.56 µM (6 h, Rep2): 0%
- mortality at 6.25 µM (6 h, Rep1): 0%
- mortality at 6.25 µM (6 h, Rep2): 0%
- mortality at 25 µM (6 h, Rep1): 40%
- mortality at 25 µM (6 h, Rep2): 40%
- mortality at 100 µM (6 h, Rep1): 100%
- mortality at 100 µM (6 h, Rep2): 100%
- mortality at 0.006 µM (12 h, Rep1): 0%
- mortality at 0.006 µM (12 h, Rep2): 0%
- mortality at 0.024 µM (12 h, Rep1): 0%
- mortality at 0.024 µM (12 h, Rep2): 0%
- mortality at 0.098 µM (12 h, Rep1): 0%
- mortality at 0.098 µM (12 h, Rep2): 0%
- mortality at 0.39 µM (12 h, Rep1): 0%
- mortality at 0.39 µM (12 h, Rep2): 0%
- mortality at 1.56 µM (12 h, Rep1): 0%
- mortality at 1.56 µM (12 h, Rep2): 0%
- mortality at 6.25 µM (12 h, Rep1): 40%
- mortality at 6.25 µM (12 h, Rep2): 50%
- mortality at 25 µM (12 h, Rep1): 100%
- mortality at 25 µM (12 h, Rep2): 90%
- mortality at 100 µM (12 h, Rep1): 100%
- mortality at 100 µM (12 h, Rep2): 100%
- mortality at 0.006 µM (24 h, Rep1): 0%
- mortality at 0.006 µM (24 h, Rep2): 0%
- mortality at 0.024 µM (24 h, Rep1): 0%
- mortality at 0.024 µM (24 h, Rep2): 0%
- mortality at 0.098 µM (24 h, Rep1): 0%
- mortality at 0.098 µM (24 h, Rep2): 0%
- mortality at 0.39 µM (24 h, Rep1): 0%
- mortality at 0.39 µM (24 h, Rep2): 0%
- mortality at 1.56 µM (24 h, Rep1): 50%
- mortality at 1.56 µM (24 h, Rep2): 60%
- mortality at 6.25 µM (24 h, Rep1): 100%
- mortality at 6.25 µM (24 h, Rep2): 90%
- mortality at 25 µM (24 h, Rep1): 100%
- mortality at 25 µM (24 h, Rep2): 100%
- mortality at 100 µM (24 h, Rep1): 100%
- mortality at 100 µM (24 h, Rep2): 100%
- mortality at 0.006 µM (48 h, Rep1): 0%
- mortality at 0.006 µM (48 h, Rep2): 10%
- mortality at 0.024 µM (48 h, Rep1): 0%
- mortality at 0.024 µM (48 h, Rep2): 0%
- mortality at 0.098 µM (48 h, Rep1): 10%
- mortality at 0.098 µM (48 h, Rep2): 10%
- mortality at 0.39 µM (48 h, Rep1): 40%
- mortality at 0.39 µM (48 h, Rep2): 40%
- mortality at 1.56 µM (48 h, Rep1): 90%
- mortality at 1.56 µM (48 h, Rep2): 100%
- mortality at 6.25 µM (48 h, Rep1): 100%
- mortality at 6.25 µM (48 h, Rep2): 100%
- mortality at 25 µM (48 h, Rep1): 100%
- mortality at 25 µM (48 h, Rep2): 100%
- mortality at 100 µM (48 h, Rep1): 100%
- mortality at 100 µM (48 h, Rep2): 100%
